Data on 25 molecules can be found in PubChem BioAssay AID330 (DTP/NCI, 2004).

The assay deals with P388 leukemia ip, CD2F1 mice, survival T/C. Kind of assay: NCI In Vivo Anticancer Drug Screen. Data for tumor model P388 Leukemia (intraperitoneal) in CD2F1 (CDF1) mice. The following applies: endpoint: median survival time, higher = longer survival. A digest of the protocol: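 Mice carrying the transplanted tumor received test compound or vehicle. Survival was recorded in each group, and the value is the treated-group measurement divided by that of the vehicle-treated control group.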

The mark [1] stands for this setting: dose: 60.0 mg/kg/injection, schedule: Q01DX005 (ip), vehicle: Klucel (hydroxypropylcellulose) (HPC).
The mark [2] stands for this setting: dose: 120.0 mg/kg/injection, schedule: Q01DX005 (ip), vehicle: Klucel (hydroxypropylcellulose) (HPC).
The mark [3] stands for this setting: dose: 240.0 mg/kg/injection, schedule: Q01DX005 (ip), vehicle: Klucel (hydroxypropylcellulose) (HPC).
[4] abbreviates: dose: 6.25 mg/kg/injection, schedule: Q01DX009 (ip), vehicle: saline with Tween-80.
Setting [5] is: dose: 12.5 mg/kg/injection, schedule: Q01DX009 (ip), vehicle: saline with Tween-80.
Where [6] appears, read: dose: 25.0 mg/kg/injection, schedule: Q01DX009 (ip), vehicle: saline with Tween-80.
The mark [7] stands for this setting: dose: 50.0 mg/kg/injection, schedule: Q01DX009 (ip), vehicle: saline.
Where [8] appears, read: dose: 100.0 mg/kg/injection, schedule: Q01DX009 (ip), vehicle: saline.
Setting [9] is: dose: 50.0 mg/kg/injection, schedule: Q01DX005 (ip), vehicle: saline with Tween-80.
The mark [10] stands for this setting: dose: 100.0 mg/kg/injection, schedule: Q01DX005 (ip), vehicle: saline with Tween-80.
Setting [11] is: dose: 200.0 mg/kg/injection, schedule: Q01DX005 (ip), vehicle: saline with Tween-80.

Several values for one entry are separate records, joined by “and”; a condition that tells them apart may be missing. Equal values may be shown once. Inconclusive results and toxic doses are left out.

For the molecule `COc1cccc2c1C(=O)c1c(O)c3c(c(O)c1C2=O)C[C@@](O)(C(C)=O)CC3OC1CC(NC2CC(=O)N(c3ccccc3)C2=O)C(O)C(C)O1` (stereo partly drawn), the T/C was 108 % of control (dose: 6.25 mg/kg/injection, schedule: Q04DX003 (ip), vehicle: water); 103 % of control (dose: 12.5 mg/kg/injection, schedule: Q04DX003 (ip), vehicle: water); 103 % of control (dose: 25.0 mg/kg/injection, schedule: Q04DX003 (ip), vehicle: water); 108 % of control (dose: 50.0 mg/kg/injection, schedule: Q04DX003 (ip), vehicle: water).
For the molecule `CS(=O)(=O)ON1C(=O)c2ccccc2C1=O`, the T/C is, setting by setting: (dose: 25.0 mg/kg/injection, schedule: Q04DX003 (ip), vehicle: Klucel (hydroxypropylcellulose) (HPC)) 104 % of control and 108 % of control; (dose: 50.0 mg/kg/injection, schedule: Q04DX003 (ip), vehicle: Klucel (hydroxypropylcellulose) (HPC)) 105 % of control and 110 % of control; (dose: 100.0 mg/kg/injection, schedule: Q04DX003 (ip), vehicle: Klucel (hydroxypropylcellulose) (HPC)) 103 % of control and 95 % of control; (dose: 200.0 mg/kg/injection, schedule: Q04DX003 (ip), vehicle: Klucel (hydroxypropylcellulose) (HPC)) 100 % of control.
Regarding `CC(=O)NS(=O)(=O)c1ccc(N/N=C(\C#N)C(N)=O)cc1`, the T/C by setting is: (dose: 50.0 mg/kg/injection, schedule: Q01DX005 (ip), vehicle: Klucel (hydroxypropylcellulose) (HPC)) 92 % of control; (dose: 100.0 mg/kg/injection, schedule: Q01DX005 (ip), vehicle: Klucel (hydroxypropylcellulose) (HPC)) 100 % of control.
Turning to `CCOC(=O)c1[nH]ncc1[N+](=O)[O-]`, the T/C (dose: 100.0 mg/kg/injection, schedule: Q01DX001 (ip), vehicle: saline with Tween-80) was 103 % of control; the T/C (dose: 200.0 mg/kg/injection, schedule: Q01DX001 (ip), vehicle: saline with Tween-80) was 102 % of control; the T/C (dose: 400.0 mg/kg/injection, schedule: Q01DX001 (ip), vehicle: saline with Tween-80) is 102 % of control.
Take `C=C(CCS(=O)c1ccccc1)CC(CC(=C)COC(C)=O)S(=O)(=O)c1ccccc1` (stereo not drawn): the T/C reads like this: under setting [1], 99 % of control; under setting [2], 99 % of control; under setting [3], 98 % of control.
On to `NC(CS(=O)c1ccc(Cl)cc1)C(=O)O` (stereo not drawn), for which the T/C under setting [4] was 95 % of control, the T/C under setting [5] was 95 % of control and the T/C under setting [6] is 100 % of control.
As for `C[S+](C)CCCNC(=O)c1csc(-c2csc(N)n2)n1`, the T/C runs as follows: (dose: 6.25 mg/kg/injection, schedule: Q01DX005 (ip), vehicle: water) 100 % of control; (dose: 12.5 mg/kg/injection, schedule: Q01DX005 (ip), vehicle: water) 96 % of control; (dose: 25.0 mg/kg/injection, schedule: Q01DX005 (ip), vehicle: water) 96 % of control.
Consider `N=C(N)c1ccc(-c2ccc(-c3ccc(C(=N)N)cc3)s2)cc1`, for which the T/C by setting is: (dose: 12.5 mg/kg/injection, schedule: Q04DX003 (ip), vehicle: suspension in saline) 106 % of control; (dose: 25.0 mg/kg/injection, schedule: Q04DX003 (ip), vehicle: suspension in saline) 120 % of control; (dose: 100.0 mg/kg/injection, schedule: Q04DX003 (ip), vehicle: suspension in saline) 169 % of control.
In the case of `C=CCC(NC(C)=O)C(=O)O` (stereo not drawn), the T/C was 88 % of control (dose: 25.0 mg/kg/injection, schedule: Q01DX009 (ip), vehicle: saline); 101 % of control under setting [7]; 93 % of control under setting [8].
Turning to `CN=C(C)NC1CCCCC1`, the T/C under setting [7] is 96 % of control and the T/C under setting [8] was 96 % of control.
As for `COC(=O)C(O)C1OC(COCc2ccccc2)C(OCc2ccccc2)C1OCc1ccccc1` (stereo not drawn), the T/C (dose: 12.5 mg/kg/injection, schedule: Q01DX009 (ip), vehicle: distilled water + alcohol) is 100 % of control; the T/C (dose: 25.0 mg/kg/injection, schedule: Q01DX009 (ip), vehicle: distilled water + alcohol) was 100 % of control; the T/C (dose: 50.0 mg/kg/injection, schedule: Q01DX009 (ip), vehicle: distilled water + alcohol) was 103 % of control; the T/C (dose: 100.0 mg/kg/injection, schedule: Q01DX009 (ip), vehicle: distilled water + alcohol) is 100 % of control; the T/C (dose: 200.0 mg/kg/injection, schedule: Q01DX009 (ip), vehicle: distilled water + alcohol) was 112 % of control.
In the case of `N#CC1(Nc2ccccc2)CCCCC1`, the T/C is 90 % of control under setting [4], 95 % of control under setting [5] and 90 % of control under setting [6].
Consider `CCN(CC)c1ccc2cc(S(=O)(=O)c3ccc(Cl)cc3)c(=O)oc2c1`, for which the T/C by setting is: under setting [9], 86 % of control; under setting [10], 92 % of control.
`O=C(COc1ccc(Cl)cc1Cl)Nc1ccc(S(=O)(=O)O)cc1`: the T/C by setting is: under setting [1], 104 % of control; under setting [2], 104 % of control; under setting [3], 98 % of control.
In the case of `C[As](C)SCCC(N)C(=O)NC(CCS[As](C)C)C(=O)O` (stereo not drawn), for the setting “dose: 12.5 mg/kg/injection, schedule: Q01DX009 (ip), vehicle: Klucel (hydroxypropylcellulose) (HPC)”, the T/C is 110 % of control.
Regarding `NC(=O)NN1CC(=O)N(c2ccccc2)CC1=O`, the T/C by setting is: (dose: 50.0 mg/kg/injection, schedule: Q01DX009 (ip), vehicle: saline with Tween-80) 97 % of control; (dose: 100.0 mg/kg/injection, schedule: Q01DX009 (ip), vehicle: saline with Tween-80) 100 % of control; (dose: 200.0 mg/kg/injection, schedule: Q01DX009 (ip), vehicle: saline with Tween-80) 95 % of control.
For the molecule `C/C=C1\CN2C3CC1C1(CN4c5c(OC)cc(OC)c(OC)c5C56CC7C(COC45O1)C1CC6N7C/C1=C/COC)C2CC31C(=O)Nc2c(OC)cc(OC)c(OC)c21` (stereo not drawn), the T/C runs as follows: (dose: 1.5 mg/kg/injection, schedule: Q01DX005 (ip), vehicle: Klucel (hydroxypropylcellulose) (HPC)) 97 % of control; (dose: 3.0 mg/kg/injection, schedule: Q01DX005 (ip), vehicle: Klucel (hydroxypropylcellulose) (HPC)) 97 % of control; (dose: 6.0 mg/kg/injection, schedule: Q01DX005 (ip), vehicle: Klucel (hydroxypropylcellulose) (HPC)) 108 % of control; (dose: 12.0 mg/kg/injection, schedule: Q01DX005 (ip), vehicle: Klucel (hydroxypropylcellulose) (HPC)) 96 % of control.
Consider `COCOc1cccc2c1CCC2`, for which the T/C runs as follows: under setting [9], 100 % of control; under setting [10], 100 % of control; under setting [11], 100 % of control.
In the case of `COC(=O)CC1(O)C=C(C)C(=O)c2ccccc21` (stereo not drawn), the T/C was 100 % of control (dose: 25.0 mg/kg/injection, schedule: Q01DX005 (ip), vehicle: saline with Tween-80); 101 % of control under setting [9]; 100 % of control under setting [10]; 100 % of control under setting [11]; 101 % of control (dose: 400.0 mg/kg/injection, schedule: Q01DX005 (ip), vehicle: saline with Tween-80).
For the molecule `O=C1NC2(CCCCC2)C(=O)N1CCCCN(CCCl)CCCl`, the T/C is 122 % of control (dose: 1.5 mg/kg/injection, schedule: Q01DX005 (ip), vehicle: saline); 119 % of control (dose: 6.0 mg/kg/injection, schedule: Q01DX005 (ip), vehicle: saline); 165 % of control (dose: 24.0 mg/kg/injection, schedule: Q01DX005 (ip), vehicle: saline); 160 % of control (dose: 50.0 mg/kg/injection, schedule: Q01DX005 (ip), vehicle: saline); 187 % of control (dose: 100.0 mg/kg/injection, schedule: Q01DX005 (ip), vehicle: saline).
Turning to `CCC(C)B1N(c2ccccc2)N=NN1C(C)(C)C` (stereo not drawn), the T/C runs as follows: (dose: 60.0 mg/kg/injection, schedule: Q01DX005 (ip), vehicle: saline with Tween-80) 97 % of control; (dose: 120.0 mg/kg/injection, schedule: Q01DX005 (ip), vehicle: saline with Tween-80) 97 % of control; (dose: 240.0 mg/kg/injection, schedule: Q01DX005 (ip), vehicle: saline with Tween-80) 105 % of control.
`O=NNc1ccc(I)cn1`: the T/C reads like this: (dose: 6.25 mg/kg/injection, schedule: Q01DX009 (ip), vehicle: water) 170 % of control; (dose: 12.5 mg/kg/injection, schedule: Q01DX009 (ip), vehicle: water) 173 % of control and 190 % of control.
Consider `O=C(NCC1CC1)NC(=O)c1c(F)cccc1Cl`, for which the T/C is 102 % of control under setting [1], 106 % of control under setting [2] and 106 % of control under setting [3].
As to `O=[N+]([O-])c1ccc(N=NN2CCOC2)cc1`, the T/C is 99 % of control under setting [9], 103 % of control under setting [10] and 105 % of control under setting [11].
For `CC([C@H](c1ccccc1)C1CCC(C(N)=O)(N2CCOCC2)C1)[N+](=O)[O-]` (stereo partly drawn), the T/C runs as follows: under setting [1], 99 % of control; under setting [2], 99 % of control; under setting [3], 93 % of control.
